For assay [1], the target named is T1, human B1R (bradykinin receptor 1) (Homo sapiens, UniProt P46663).
T1 construct: expressed in transfected cells; host or cells: CHO K1 cells
T1 sequence (P46663 1-353): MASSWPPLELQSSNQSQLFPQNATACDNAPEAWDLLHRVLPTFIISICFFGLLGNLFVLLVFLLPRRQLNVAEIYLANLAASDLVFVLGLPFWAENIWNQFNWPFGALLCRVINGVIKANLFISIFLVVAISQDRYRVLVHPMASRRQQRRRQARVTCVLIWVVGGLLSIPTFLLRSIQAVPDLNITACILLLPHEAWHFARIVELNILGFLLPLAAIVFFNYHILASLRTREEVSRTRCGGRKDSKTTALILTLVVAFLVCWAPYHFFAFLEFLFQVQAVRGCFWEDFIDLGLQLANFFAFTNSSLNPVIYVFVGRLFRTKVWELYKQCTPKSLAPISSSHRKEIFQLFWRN
Kind of assay: FLIPR Ca2+ assay (Fluo-4) on CHO K1 cells stably transfected with the human B1R gene (hB1R cells): % inhibition at 10 μM / IC50, agonist Lys-Des-Arg9-bradykinin. The class given is cell-based. Particulars: CHO-K1, human B1R. As for the experimental part:
The agonistic or antagonistic action of substances can be quantified on the bradykinin receptor 1 (B1R) of the human and rat species with ectopically expressing cell lines (CHO K1 cells) and with the aid of a Ca^2+-sensitive dyestuff (Fluo-4) in a fluorescent imaging plate reader (FLIPR). The figure in % activation is based on the Ca^2+ signal after addition of Lys-Des-Arg^9-bradykinin (0.5 nM) or Des-Arg^9-bradykinin (100 nM). Antagonists lead to a suppression of the Ca^2+ inflow after addition of the agonist. % inhibition compared with the maximum achievable inhibition is stated.
The agonistic or antagonistic action of substances can be determined on the bradykinin receptor 1 (B1R) of the human and rat species with the following assay. In accordance with this assay, the Ca^2+ inflow through the channel is quantified with the aid of a Ca^2+-sensitive dyestuff (type Fluo-4, Molecular Probes Europe BV, Leiden, Holland) in a fluorescent imaging plate reader (FLIPR, Molecular Devices, Sunnyvale, USA).
Chinese hamster ovary cells (CHO K1 cells) transfected stably with the human B1R gene (hB1R cells) or the B1R gene of the rat (rB1R cells) are used. For functional studies, these cells are plated out on black 96-well plates with a clear base (BD Biosciences, Heidelberg, Germany or Greiner, Frickenhausen, Germany) in a density of 20,000-35,000 cells/well. The cells are left overnight at 37° C. and 5% CO2 in culture medium (hB1R cells: Nutrient Mixture Ham's F12, Gibco Invitrogen GmbH, Karlsruhe, Germany or DMEM, Sigma-Aldrich, Taufkirchen, Germany; rB1R cells: D-MEM/F12, Gibco Invitrogen GmbH, Karlsruhe, Germany) with 10 vol. % FBS (foetal bovine serum, Gibco Invitrogen GmbH, Karlsruhe, Germany or PAN Biotech GmbH, Aidenbach, Germany). On the following day, the cells are loaded for 60 min at 37° C. with 2.13 μM Fluo-4 (Molecular Probes Europe BV, Leiden Holland) in HBSS buffer (Hank's buffered saline solution, Gibco Invitrogen GmbH, Karlsruhe, Germany) with 2.5 mM probenecid (Sigma-Aldrich, Taufkirchen, Germany) and 10 mM HEPES (Sigma-Aldrich, Taufkirchen, Germany). The plates are then washed 2× with HBSS buffer, and HBSS buffer which additionally contains 0.1% BSA (bovine serum albumin; Sigma-Aldrich, Taufkirchen, Germany), 5.6 mM glucose and 0.05% gelatine (Merck KGaA, Darmstadt, Germany) is added. After a further incubation of 20 minutes at room temperature, the plates are inserted into the FLIPR for the Ca^2+ measurement. Alternatively, the plates are washed with buffer A (15 mM HEPES, 80 mM NaCl, 5 mM KCl, 1.2 mM CaCl2, 0.7 mM MgSO4, 2 g/l glucose, 2.5 mM probenecid), buffer A is added and the plates are loaded with 2.5 μM Fluo-4 and 0.025% Pluronic F127 (Sigma-Aldrich, Taufkirchen, Germany). Thereafter, the cells are washed 2× with buffer A and incubated for 30 minutes at room temperature with buffer A, which additionally contains 0.05% BSA and 0.05% gelatine, and thereafter inserted into the FLIPR for the Ca^2+ measurement. The Ca^2+-dependent fluorescence is measured here before and after addition of substances (λex=488 nm, λem=540 nm). Quantification is by measurement of the highest fluorescence intensity (FC, fluorescence counts) over time.
The FLIPR protocol consists of 2 additions of substance. Test substances (10 μM) are first pipetted on to the cells and the Ca^2+ inflow is compared with the control (hB1R: Lys-Des-Arg^9-bradykinin>=50 nM; rB1R: Des-Arg^9-bradykinin 10 μM). This gives the result in % activation based on the Ca^2+ signal after addition of Lys-Des-Arg^9-bradykinin (>=50 nM) or Des-Arg^9-bradykinin (10 μM). After incubation for 10-20 minutes, Lys-Des-Arg^9-bradykinin (hB1R) or Des-Arg^9-bradykinin (rB1R) in the concentration of the EC80 is applied and the inflow of Ca^2+ is likewise determined. Antagonists lead to a suppression of the Ca^2+ inflow. % inhibition compared with the maximum achievable inhibition is calculated.
For determination of the IC50 value, the substances are added in various concentrations. […]

Assay [2] has as its target T2, rat B1R (bradykinin receptor 1) (Rattus norvegicus, UniProt P97583).
T2 construct: expressed in transfected cells; host or cells: CHO K1 cells
T2 sequence (P97583 1-337): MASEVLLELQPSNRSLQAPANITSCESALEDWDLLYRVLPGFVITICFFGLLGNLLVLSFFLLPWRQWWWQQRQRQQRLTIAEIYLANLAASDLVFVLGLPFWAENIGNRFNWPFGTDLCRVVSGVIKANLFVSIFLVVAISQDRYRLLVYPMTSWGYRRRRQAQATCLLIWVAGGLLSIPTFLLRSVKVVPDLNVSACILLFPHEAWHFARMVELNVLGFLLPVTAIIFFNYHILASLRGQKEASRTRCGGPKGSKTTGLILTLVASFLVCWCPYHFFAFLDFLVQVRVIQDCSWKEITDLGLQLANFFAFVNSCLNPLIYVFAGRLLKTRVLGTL
The assay is described as follows: FLIPR Ca2+ assay (Fluo-4) on CHO K1 cells stably transfected with the B1R gene of the rat (rB1R cells): % inhibition at 10 μM / IC50, agonist Des-Arg9-bradykinin. The class given is cell-based. The conditions noted are these: CHO-K1, rat B1R. In short, it runs like this:
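Antagonism is measured as the drop in peak Fluo-4 Ca2+ signal when the EC80 agonist follows 10–20 min compound exposure. The single-point screen uses 10 μM; IC50 uses several concentrations. Values are given as % of maximal achievable inhibition.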

As usually defined, the inhibition is the relative decrease from the control value, in per cent.

In the case of `CC(C)(C)CC(=O)N1CCC2(CC1)CCN(C(=O)c1ccc3c(c1)C(NC(=O)c1ccccc1Cl)CC3)C2` (stereo not drawn) [IND_CC-574, 2-Chloro-N-[6-[8-(3,3-dimethyl-butanoyl)-2,8-diazaspiro[4.5]decane-2-carbonyl]-2,3-dihydro-1H-inden-1-yl]-benzamide], the inhibition at 10 µM worked out at 14% in assay [1] and 101% in assay [2].

`O=C(N[C@@H]1CCc2ccc(C(=O)N3CCC4(CCN(c5ccncc5)CC4)C3)cc21)c1cccc(F)c1Cl` [Example H-153, 2-Chloro-3-fluoro-N-[(1R)-6-(8-pyridin-4-yl-3,8-diazaspiro[4.5]decane-3-carbonyl)-2,3-dihydro-1H-inden-1-yl]-benzamide]: the inhibition at 10 µM in assay [1] was 99%; in assay [2] it was 105%.

Take `O=C(NC1CCc2ccc(C(=O)N3CCC4(CCC(c5ccncc5)CC4)C3)cc21)c1ccccc1Cl` (stereo not drawn) [Example H-133, 2-Chloro-N-[6-(8-pyridin-4-yl-3-azaspiro[4.5]decane-3-carbonyl)-2,3-dihydro-1H-inden-1-yl]-benzamide]: the inhibition at 10 µM in assay [1] stood at 65%; in assay [2], 100%.

Consider `CC1(C)CC(NC(=O)c2ccccc2Cl)c2cc(C(=O)N3CCC4(CC3)CCN(c3ccncc3)CC4)ccc21` (stereo not drawn) [IND_CC-292, 2-Chloro-N-[3,3-dimethyl-6-(3-pyridin-4-yl-3,9-diazaspiro[5.5]undecane-9-carbonyl)-1,2-dihydro-inden-1-yl]-benzamide], for which the figures for the inhibition at 10 µM in assay [1] and in assay [2] were 99% and 105%, respectively.

On to `O=C(c1ccc2c(c1)[C@H](N1Cc3cccc(Cl)c3C1=O)CCC2)N1CCC2(CC1)CCN(c1ccncc1)CC2` [Example H-14, 7-chloro-2-[(1R)-7-(9-pyridin-4-yl-3,9-diazaspiro[5.5]undecane-3-carbonyl)-1,2,3,4-tetrahydro-naphthalen-1-yl]-2,3-dihydro-isoindol-1-one], for which the inhibition at 10 µM was 91% in assay [1] and 101% in assay [2].

As for `O=C(N[C@H]1CCc2cc(C(=O)N3CCC4(CCN(c5ccncc5)CC4)C3)ccc21)c1ccccc1Cl` [Example H-155], the inhibition at 10 µM in assay [1] was 87%; in assay [2] it was 100%.

Consider `O=C(NC1CCc2ccc(C(=O)N3CCC4(CC3)CCN(c3ccc(F)cc3)CC4)cc21)c1sccc1Cl` (stereo not drawn) [Ind_CC-103, 3-chloro-N-[6-[9-(4-fluorophenyl)-3,9-diazaspiro[5.5]undecane-3-carbonyl]-2,3-dihydro-1H-inden-1-yl]-thiophene-2-carboxylic acid amide], for which the inhibition at 10 µM was 93% in assay [1] and 62% in assay [2].

Take `O=C(NC1CCc2ccc(C(=O)N3CCC4(CCN(C(=O)C5CC5)CC4)C3)cc21)c1ccccc1Cl` (stereo not drawn) [IND_CC-573, 2-Chloro-N-[6-[8-(cyclopropanecarbonyl)-2,8-diazaspiro[4.5]decane-2-carbonyl]-2,3-dihydro-1H-inden-1-yl]-benzamide]: the inhibition at 10 µM in assay [1] came out at 43%; in assay [2], 100%.

As to `CC1(C)CC(NS(=O)(=O)CCc2ccccc2Cl)c2cc(C(=O)N3CCC4(CC3)CCN(c3ccncc3)CC4)ccc21` (stereo not drawn) [IND_CC-260, 2-(2-Chlorophenyl)-N-[3,3-dimethyl-6-(3-pyridin-4-yl-3,9-diazaspiro[5.5]-undecane-9-carbonyl)-1,2-dihydro-inden-1-yl]-ethanesulfonic acid amide], the inhibition at 10 µM in assay [1] and in assay [2] was 100% in each case.

With `Cc1ccc(F)c(C(=O)NC2c3cc(C(=O)N4CCC5(CC4)CCN(c4ccncc4)CC5)ccc3CC2(C)C)c1Cl` (stereo not drawn) [IND_CC-216, 2-Chloro-N-[2,2-dimethyl-6-(9-pyridin-4-yl-3,9-diazaspiro[5.5]undecane-3-carbonyl)-1,3-dihydro-inden-1-yl]-6-fluoro-3-methyl-benzamide], the inhibition at 10 µM in assay [1] was found to be 58%; in assay [2] it was 103%.

Consider `O=C(c1ccc2c(c1)[C@H](NS(=O)(=O)c1ccccc1Cl)CCC2)N1CCC2(CCN(c3ccncc3)CC2)C1` [Example H-106, 2-Chloro-N-[(1R)-7-(8-pyridin-4-yl-3,8-diazaspiro[4.5]decane-3-carbonyl)-1,2,3,4-tetrahydro-naphthalen-1-yl]-benzenesulfonic acid amide], for which the inhibition at 10 µM was found to be 100% in assay [1] and 105% in assay [2].

Regarding `CC1(C)CC(NC(=O)c2cccc(C(F)(F)F)c2Cl)c2cc(C(=O)N3CCC4(CC3)CCN(c3ccncc3)CC4)ccc21` (stereo not drawn) [IND_CC-254, 2-Chloro-N-[3,3-dimethyl-6-(3-pyridin-4-yl-3,9-diazaspiro[5.5]undecane-9-carbonyl)-1,2-dihydro-inden-1-yl]-3-(trifluoromethyl)-benzamide], the inhibition at 10 µM in assay [1] worked out at 97%; in assay [2], 105%.

Turning to `O=C(/C=C/c1ccccc1Cl)NC1CCc2ccc(C(=O)N3CCC4(CC3)CCN(c3ccncc3)C4)cc21` (stereo not drawn) [Ind_CC-046, (E)-3-(2-chlorophenyl)-N-[6-(2-pyridin-4-yl-2,8-diazaspiro[4.5]decane-8-carbonyl)-2,3-dihydro-1H-inden-1-yl]-acrylamide], the inhibition at 10 µM in assay [1] worked out at 98%; in assay [2], 68%.

With `COc1cc(C)c(C(=O)NC2CCc3ccc(C(=O)N4CCC5(CC4)CCN(c4ccncc4)C5)cc32)c(C)c1` (stereo not drawn) [Ind_CC-094, 4-methoxy-2,6-dimethyl-N-[6-(2-pyridin-4-yl-2,8-diazaspiro[4.5]decane-8-carbonyl)-2,3-dihydro-1H-inden-1-yl]-benzamide], the inhibition at 10 µM came to 42% in assay [1] and 65% in assay [2].

With `O=C(c1ccc2c(c1)CC[C@@H]2N1Cc2cccc(Cl)c2C1=O)N1CCC2(CC1)CCN(c1ccncc1)CC2` [Example H-158, 7-Chloro-2-[(1S)-5-(9-pyridin-4-yl-3,9-diazaspiro[5.5]undecane-3-carbonyl)-2,3-dihydro-1H-inden-1-yl]-2,3-dihydro-isoindol-1-one], the inhibition at 10 µM in assay [1] stood at 92%; in assay [2], 100%.

These data come from patent US8455475B2 (Gruenenthal GmbH, priority 2009, dated 2013).
